Columns and labels:
[1] = tested on: β3 Knockout(KO) Mice; assay: Thermogenesis (Oxymax indirect calorimetry) in β3 knockout mice; conditions: percent increase in thermogenesis over baseline; female FVB β3 knockout mice; i.p. 0.1-20 mg/kg or oral 1.0-30 mg/kg
[2] = tested on: β3 Transgenic(Tg) Mice; assay: Thermogenesis (Oxymax indirect calorimetry) in β3 transgenic mice; conditions: percent increase in thermogenesis over baseline; female FVB β3 transgenic mice; i.p. 0.1-20 mg/kg or oral 1.0-30 mg/kg
[3] = biological target: T1, human β3 adrenergic receptor (Homo sapiens, UniProt P13945); assay: cAMP (SPA) response in CHO cells transfected with human β3 adrenergic receptor; format: cell-based; design: key: fraction of maximal isoproterenol (10^-5 M) response; conditions: maximal response relative to maximal response of isoproterenol at 10^-5 M
T1 construct: Full length β3 AR clones (402 amino acids) containing the last 6 amino acids of hβ3-AR are prepared; expressed in transfected cells; host or cells: CHO (Chinese hamster ovary) cells
Method in brief: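 Reactions were stopped with 0.2N HCl and neutralised, and cAMP was measured by SPA. Activity is expressed as percent of the maximal 10^−5 M isoproterenol response.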

T1 sequence (P13945 whole entry): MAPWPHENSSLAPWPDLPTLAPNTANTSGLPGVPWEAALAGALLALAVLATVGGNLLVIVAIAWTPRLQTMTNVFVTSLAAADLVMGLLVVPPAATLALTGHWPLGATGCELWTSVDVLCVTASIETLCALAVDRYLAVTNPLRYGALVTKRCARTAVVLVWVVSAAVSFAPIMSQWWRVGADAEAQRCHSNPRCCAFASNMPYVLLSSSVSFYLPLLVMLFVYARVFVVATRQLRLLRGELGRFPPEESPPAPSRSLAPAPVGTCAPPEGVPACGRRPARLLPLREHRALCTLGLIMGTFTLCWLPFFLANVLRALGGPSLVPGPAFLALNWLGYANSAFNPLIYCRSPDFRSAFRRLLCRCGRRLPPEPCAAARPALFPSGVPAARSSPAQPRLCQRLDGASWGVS

melting point	IA(β3) [3]	SMILES	Thermogenesis (KO mice) [1] [%]	Thermogenesis (Tg mice) [2] [%]
> 180 °C (dec.)		CS(=O)(=O)Nc1cc(C(O)CNC2CCN(c3ccc(CC4SC(=O)NC4=O)cc3)CC2)ccc1O [Example 84, N-[5-((2R)-2-{1-[4-(2,4-Dioxo-thiazolidin-5-ylmethyl}-phenyl]-piperidin-4-ylamino}-1-hydroxy-ethyl)-2-hydroxy-phenyl]-methanesulfonamide]	−2 ± 4	30 ± 4
> 85 °C (dec.)	1.1	CS(=O)(=O)Nc1cc([C@@H](O)CNC2CCN(c3ccc(C(=O)O)cc3)CC2)ccc1O [Example 186, 4-{4-[(2R)-2-Hydroxy-2-(4-hydroxy-3-methanesulfonylamino-phenyl)-ethylamino]-piperidin-1-yl}-benzoic acid]	16 ± 7	77 ± 12
> 170 °C (dec.)	1.3	CCOC(=O)C(=Cc1ccc(N2CCC(NC[C@H](O)c3ccc(O)c(NS(C)(=O)=O)c3)CC2)cc1)C(=O)O [Example 189, 2-(4-{4-[(2R)-2-Hydroxy-2-(4-hydroxy-3-methanesulfonylamino-phenyl)-ethylamino]-piperidin-1-yl}-benzylidene)-malonic acid monoethyl ester]	6 ± 3	33 ± 7
> 60 °C (dec.)	1	CCCCN(CC(=O)OCC)C(=O)c1ccc(N2CCC(NC[C@H](O)c3ccc(O)c(NS(C)(=O)=O)c3)CC2)cc1 [Example 207, [Butyl-(4-{4-[(2R)-2-hydroxy-2-(4-hydroxy-3-methanesulfonylamino-phenyl)-ethylamino]-piperidin-1-yl}-benzoyl)-amino]-acetic acid ethyl ester]		
> 70 °C (dec.)	0.23	O=C1NC(=O)C(Cc2ccc(N3CCC(NCC(O)COc4ccc(OCc5ccccc5)cc4)CC3)cc2)S1 [Example 74, 5-(4-{4-[(2S)-3-(4-Benzyloxy-phenoxy)-2-hydroxy-propylamino]-piperidin-1-}-benzyl)-thiazolidine-2,4-dione]		
> 220 °C (dec.)	0.68	O=C1NC(=S)SC1=Cc1ccc(N2CCC(NC[C@H](O)COc3ccccc3)CC2)cc1 [Example 72, 5-{4-[4-((2S)-2-Hydroxy-3-phenoxy-propylamino)-piperidin-1-yl]-benzylidene}-2-thioxo-thiazolidin-4-one]		
> 210 °C (dec.)	0.97	CS(=O)(=O)Nc1cc([C@@H](O)CNC2CCN(c3ccc(-c4nnnn4CC(=O)O)cc3)CC2)ccc1O [Example 99, [5-(4-{4-[((2R)-2-Hydroxy-2-{4-hydroxy-3-[(methylsulfonyl)amino]phenyl}ethyl)amino]-1-piperidinyl}phenyl)-1H-tetraazol-1-yl]acetic acid]		
> 75 °C (dec.)	0.97	CCOC(=O)CC[C@H](NC(=O)c1ccc(N2CCC(NC[C@H](O)c3ccc(O)c(NS(C)(=O)=O)c3)CC2)cc1)C(=O)OCC [Example 192, Diethyl(2S)-2-[(4-{4-[((2R)-2-hydroxy-2-{4-hydroxy-3-[(methylsulfonyl)amino]phenyl}ethyl)amino]-1-piperidinyl}benzoyl)amino]pentanedioate]		
130 to 132 °C	1	CC(C)(C)OC(=O)CN1C(=O)SC(Cc2ccc(N3CCC(NC[C@H](O)c4ccc(O)c(NS(C)(=O)=O)c4)CC3)cc2)C1=O (stereo partly drawn) [Example 64, 5-[[4-[4-[[(R)-2-Hydroxy-2-[4-hydroxy-3-[(methylsulfonyl)amino]phenyl]ethyl]amino]-1-piperidinyl]phenyl]methyl]-2,4-dioxo-3-thiazolidineacetic acid tert-butyl-ester]		

SMILES	melting point	IA(β3) [3]	Thermogenesis (KO mice) [1] [%]	Thermogenesis (Tg mice) [2] [%]
CCOC(=O)c1ccc(N2CCC(NC[C@H](O)c3ccc(O)c(NS(C)(=O)=O)c3)CC2)cc1 [Example 180, {4-[(2R)-2-Hydroxy-2-(4-hydroxy-3-methanesulfonylamino-phenyl)-ethylamino]-piperidin-1-yl}-benzoic acid ethyl ester]		1	9 ± 5	42 ± 4

Reference: patent publication US7022716B2, “Cyclic amine phenyl beta-3 adrenergic receptor agonists” (Wyeth, priority 2000, dated 2006)
